CCC(C)n1ncn(-c2ccc(N3CCN(c4ccc(OC[C@H]5CO[C@](Cn6cncn6)(c6ccc(Cl)cc6Cl)O5)cc4)CC3)cc2)c1=O (mixture of isomers)
solubility (mole fraction)
Conditions | 283.15 K | 288.15 K | 293.15 K | 298.15 K | 303.15 K | 308.15 K | 313.15 K | 318.15 K | 323.15 K
in DMSO | 0.000184 | 0.000237 | 0.000309 | 0.000391 | 0.000469 | 0.000579 | 0.000707 | 0.000888 | 0.00107
in ethanol | 6.88e-06 | 9.34e-06 | 1.26e-05 | 1.66e-05 | 2.16e-05 | 2.83e-05 | 3.73e-05 | 5.03e-05 | 6.36e-05
in isopropanol | 8.3e-06 | 1.04e-05 | 1.3e-05 | 1.57e-05 | 2.02e-05 | 2.48e-05 | 3.02e-05 | 3.65e-05 | 4.37e-05
in methanol | 1.64e-05 | 2.14e-05 | 2.81e-05 | 3.7e-05 | 4.9e-05 | 6.17e-05 | 7.78e-05 | 9.7e-05 | 0.00012
in water | 4.17e-09 | 6.55e-09 | 1.03e-08 | 1.55e-08 | 2.6e-08 | 3.69e-08 | 5.55e-08 | 8.36e-08 | 1.21e-07
